Reference: patent US8143419B2, “Trisubstituted 1,2,4-triazoles” (Janssen Pharmaceutica N. V., priority 2006, dated 2012)
pEC50: −log10 of the molar value.

Tests used:
hα7-wt nAChR = molecular target: T1, hα7-wt nAChR (Homo sapiens, UniProt P36544); assay: Ca2+ flux imaging (FLIPR) (Protocol A), PAM activity with choline as agonist; type: cell-based; details: for pEC50: "<5" = no top plateau at maximal concentration; for Emax: read-out: % efficacy
T1 construct: expressed in transfected cells
Source text: Stable expression in mammalian cells in general and rat GH4C1 cells in particular, of cDNA clones encoding the human α7 wild-type sequence (hα7-wt nAChR) and in which the coding region is placed downstream of a promoter results in the appearance of functional α7 nAChRs on the surface of the mammalian cells. This technique has provided a powerful means of assessing the function of α7 wild-type protein. Given the fact that the cation permeability of the α7 nicotinic receptor preferentially favours calcium, fluorescent imaging of Ca^2+ flux through the hα7-wt nAChR stably expressed in the GH4C1 cell line was used as a first means of assaying modulator activity of the compounds of the present invention.
• Hanks buffered saline solution (HBSS, Invitrogen, Belgium), supplemented with 10 mM HEPES (Invitrogen, Belgium), CaCl2 to a final concentration of 5 mM, 0.1% Bovine serum albumin (Sigma-Aldrich NV, Belgium), 2.5 mM probenecid (Sigma-Aldrich NV, Belgium). b) Calcium-Sensitive Dye—Fluo-4AM • Fluo-4AM (Molecular Probes, USA) was dissolved in DMSO containing 10% Pluronic acid (Molecular Probes, USA) to give a stock solution which was aliquoted and stored at −20° C. until later use. On the day of the experiment Fluo-4AM stock was defrosted and diluted in DMEM/F12 (Invitrogen, Belgium) to give a final concentration of 4 μM. c) 96-Well Plates • BD Biocoat poly-D-lysine 96-well black/clear plates (BD Biosciences, Belgium) d) Calcium Flux Measurement • A Fluorimetric Imaging Plate Reader (FLIPR, Molecular Devices Corporation, Sunnyvale, USA) was used to measure intracellular free-calcium flux signals Method
Monolayers of hα7-wt nAChR-expressing cells were grown in multi-well plates, in particular black-sided, transparent bottomed 96 well plates coated with poly-D-lysine for 24 hours prior to loading with a fluorescent calcium indicator, in a particular embodiment loading with fluo-3 or fluo-4AM for up to 90 minutes, in an even more particular embodiment loading with fluo-4AM for up to 90 minutes, and in a preferred embodiment loading with fluo-4AM for up to 60 minutes.
PAM activity was detected in real time by applying the compounds to be tested to the loaded cells along with a α7 nicotinic receptor agonist during constant monitoring of cellular fluorescence in a FLIPR. Compounds giving peak fluorescent responses greater than the response due to agonist alone, were considered to be α7 nAChR PAM's. In a particular embodiment, the α7 nicotinic receptor agonist was choline, a more particular embodiment choline applied at a sub-maximal concentration of 100 μM. In a further setting of the present invention the compounds to be tested were applied prior to the α7 nicotinic receptor agonist, in a particular embodiment up to 20 minutes prior to the agonist, a more particular embodiment up to 10 minutes prior to the agonist, and an even more particular embodiment 10 minutes prior to the agonist.
A control response to choline was calculated on each plate from the difference in peak in fluorescence in wells receiving either choline or assay buffer alone. Compounds of the present invention were tested at a concentration range from 0.1 μM to 50 μM. Compounds were considered to have an interesting activity when their efficacy was at least 500% when tested at the concentration where they have a maximal effect, typically between 0.1 μM and 50 μM (the efficacy of 100 μM choline was defined as 100% in the absence of a PAM). The compounds also have a potentiating effect on the response to choline when measured by whole-cell patch clamp electrophysiology in GH4C1 cells stably over-expressing the human wild-type α7 receptor.

T1 sequence (P36544 23-502): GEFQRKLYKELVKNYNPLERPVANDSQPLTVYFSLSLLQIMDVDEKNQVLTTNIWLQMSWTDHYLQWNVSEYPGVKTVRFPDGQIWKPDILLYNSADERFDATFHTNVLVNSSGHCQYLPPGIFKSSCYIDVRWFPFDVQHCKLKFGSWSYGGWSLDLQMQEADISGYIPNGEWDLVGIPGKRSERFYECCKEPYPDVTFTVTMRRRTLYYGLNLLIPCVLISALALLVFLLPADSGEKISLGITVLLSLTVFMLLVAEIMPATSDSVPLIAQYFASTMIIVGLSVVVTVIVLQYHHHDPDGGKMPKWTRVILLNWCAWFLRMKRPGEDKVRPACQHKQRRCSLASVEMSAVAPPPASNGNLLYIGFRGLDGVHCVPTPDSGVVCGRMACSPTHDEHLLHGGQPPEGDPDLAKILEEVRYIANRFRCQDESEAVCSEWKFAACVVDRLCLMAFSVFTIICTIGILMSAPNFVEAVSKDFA

Row | melting point [°C] | pEC50 (hα7-wt nAChR) | Emax (hα7-wt nAChR) [%] | Structure (SMILES)
1 | 167.4 | 5.40 |  | OCCn1nc(Nc2cccc(C(F)(F)F)c2)nc1-c1ccnc(N2CCOCC2)c1 [Compound 38]
2 | 147.2 | 5.10 | 641 | COCCn1nc(Nc2cccc(C(F)(F)F)c2)nc1-c1ccncc1 [Compound 52]
3 | 173.1 | < 5.00 |  | OCCn1nc(Nc2cccc(C(F)(F)F)c2)nc1-c1cnc2c(c1)OCC2 [Compound 78]
4 | 158.8 | < 5.00 |  | OCCn1nc(Nc2cccc(C(F)(F)F)c2)nc1-c1cnc2ccoc2c1 [Compound 79]
5 | 182 | 5.50 |  | OCCn1nc(Nc2cccc(C(F)(F)F)c2)nc1-c1cnc2ccccc2c1 [Compound 80]
6 | 149.2 | < 5.00 |  | CCOC(=O)Cn1nc(Nc2cccc(C(F)(F)F)c2)nc1-c1ccc2c(c1)OCO2 [Compound 81]
7 | 113.1 to 115.1 | 5.50 |  | CN(C)C(=O)CCn1nc(N(C)c2ccc(F)c(C(F)(F)F)c2)nc1-c1ccc2c(c1)OCCO2 [Compound 135]
8 | 125.5 | 5.40 |  | CC(O)Cn1nc(Nc2cccc(OC(F)(F)F)c2)nc1-c1ccc(C2CC2)nc1 (centres unmarked) [Compound 150]
9 | 131.4 | 5.60 | 904 | C[C@H](O)Cn1nc(Nc2ccc(F)c(F)c2)nc1-c1ccnc(C2CC2)c1 [Compound 175]
10 | 150.3 | 5.40 |  | FCCn1nc(Nc2cc(F)cc(F)c2)nc1-c1ccnc(C2CC2)c1 [Compound 177]
11 | 247 | < 5.00 |  | CNC(=O)Cn1nc(Nc2cc(F)cc(F)c2)nc1-c1ccnc(NC)c1 [Compound 178]
12 | 134.7 to 136.7 | 5.50 |  | COc1ccc(Cl)c(Nc2nc(-c3ccc4c(c3)OCCO4)n(CCC(=O)N(C)C)n2)c1 [Compound 196]
